Data: patent US7781394B2 (Institut Pasteur, priority 2006, dated 2010)
Like-named read-outs stand apart in the source and are kept apart here. Each block holds one compound with its values, some of them ahead of it.

Columns and labels:
Format in all cases: biochemical
RCL [1] = target: T1, RCL (Rattus norvegicus, UniProt O35820); assay: Compounds tested as substrate or inhibitor of RCL enzyme activity (dGMP hydrolysis); details: for Ki: competitive for dGMP, double reciprocal plot; for substrate or inhibitor of the enzyme activity: versus dGMP as substrate
T1 construct: made in house; host or cells: E. coli Bli5 (BL21 (DE3) pDIA17); pET24dRcl (untagged) or pET28aRcl (His-tagged)
T1 sequence (O35820 1-163): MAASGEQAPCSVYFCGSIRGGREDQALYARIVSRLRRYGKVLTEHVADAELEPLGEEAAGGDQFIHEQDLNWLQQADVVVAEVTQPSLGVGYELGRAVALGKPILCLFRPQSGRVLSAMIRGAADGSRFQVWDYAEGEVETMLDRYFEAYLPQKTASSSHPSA
Protocol: The enzyme activity was determined either spectrophotometrically by following one of the reaction products, […] or deoxyribose 5-phosphate, or by HPLC separation and UV detection of the released nucleobase and the remaining substrate.
The initial velocity of the reaction was measured either at variable concentration of dGMP both in the absence and presence of inhibitors, or at fixed concentration of dGMP and variable concentrations of inhibitors allowing the testing of the nature of the inhibition.

[2] = target: T2, His-RCL (deoxynucleoside 5′-monophosphate N-glycosidase) (Rattus norvegicus, UniProt O35820); assay: Kinetic parameters of His-RCL (wild-type) with dNMP substrates, initial velocity measurements
T2 construct: made in house; host or cells: E. coli Bli5 (BL21 (DE3) pDIA17), plasmid pET28aRcl
T2 sequence (O35820 1-163): T1 sequence (O35820 1-163)

RCL [3] = target: T1, RCL; assay: pH dependence of RCL activity at saturating substrate; details: for % of the maximal activity: pH 7.0; for % of the enzyme activity remained: pH 8.0; for pH optimum: saturating concentrations of substrate
Protocol: Catalytic properties of the recombinant proteins. […] 50% of the maximal activity was still observed at pH 7.0 in the case of dCMP while it was only 20% in the case of dGMP. In both cases at pH 8.0, only 10% of the enzyme activity remained. Several metals were tested for their ability to stimulate or inhibit the reaction: Ca^2+, Mg^2+, Zn^2+, Na^+, and K^+.

[4] = Table 3, additional substrates of His-RCL, in 1/s
[5] = Table 3, additional substrates of His-RCL, read-out: Km
[6] = Table 1, substrate of His-RCL, five concentrations
[7] = purine deoxynucleotides, read-out: Km of RCL
[8] = pyrimidine deoxynucleotides, read-out: Km of RCL

SMILES: CSc1nc(N)nc2c1ncn2[C@@H]1O[C@H](COP(=O)(O)O)[C@@H](O)[C@H]1O
Ki (RCL [1]): 10 µM | substrate or inhibitor of the enzyme activity (RCL [1]): competitive inhibitors

substrate or inhibitor of the enzyme activity (RCL [1]): neither a substrate nor an inhibitor
SMILES: Nc1nc2c(ncn2[C@H]2C[C@H](OP(=O)(O)O)[C@@H](CO)O2)c(=O)[nH]1 [2′-deoxyguanosine 3′-monophosphate]

kcat [2, 4]: 0.033 | Km [2, 5]: 61 ± 16 µM
SMILES: COc1nc(N)nc2c1ncn2[C@H]1C[C@H](O)[C@@H](COP(=O)(O)O)O1 [06-methyl-dGMP]

substrate or inhibitor of the enzyme activity (RCL [1]): neither a substrate nor an inhibitor
SMILES: NC1=NC(=O)C2=NC(=O)N([C@H]3C[C@H](O)[C@@H](COP(=O)(O)O)O3)C2=N1 [8-oxo-dGMP, 8-oxo-deoxyguanosine 5′-monophosphate]

SMILES: Nc1nc2c(ncn2[C@@H]2O[C@H](COP(=O)(O)O)[C@@H](O)[C@H]2O)c(=O)[nH]1 [GMP]
Ki (RCL [1]): 20 µM | substrate or inhibitor of the enzyme activity (RCL [1]): competitive inhibitors

kcat [2, 4]: 0.0528 | Km [2, 5]: 71 ± 8 µM
SMILES: CCNc1nc2c(ncn2[C@H]2C[C@H](O)[C@@H](COP(=O)(O)O)O2)c(=O)[nH]1 [N2-ethyl-dGMP]

kcat [2, 4]: 2.376 | Km [2, 5]: 470 ± 68 µM
SMILES: C[n+]1cn([C@H]2C[C@H](O)[C@@H](COP(=O)(O)O)O2)c2nc(N)[nH]c(=O)c21 [N7-methyl-dGMP]

kcat [2, 6]: 0.0066 s⁻¹ | Km [2, 7]: 250 µM
SMILES: Nc1ncnc2c1ncn2[C@H]1C[C@H](O)[C@@H](COP(=O)(O)O)O1 [dAMP]

kcat [2, 6]: 0.0231 s⁻¹ | Km [2, 8]: 4000 µM | % of the maximal activity (RCL [3]): 50% | % of the enzyme activity remained (RCL [3]): 10% | pH optimum (RCL [3]): ~6.0 pH
SMILES: Nc1ccn([C@H]2C[C@H](O)[C@@H](COP(=O)(O)O)O2)c(=O)n1 [dCMP]

SMILES: Nc1nc2c(ncn2[C@H]2C[C@H](O)[C@@H](COP(=O)(O)O)O2)c(=O)[nH]1 [dGMP]
Vmax [2]: 0.09 U. mg^−1 | kcat [2, 6]: 0.0297 s⁻¹ | kcat ([2]; Table 2, Wt His-RCL, dGMP 250 μM to 20 mM): 0.0298 s⁻¹ | kcat [2, 4]: 0.033 | Km [2, 5]: 77 ± 20 µM | kcat ([2]; corresponds to Vmax): 0.0268 s⁻¹ | times more efficiently cleaved than dAMP ([2]; kcat/Km comparison): 20 times | times more efficiently cleaved than dIMP ([2]; kcat/Km comparison): 40 times | Km [2, 7]: 50 µM | % of the maximal activity (RCL [3]): 20% | % of the enzyme activity remained (RCL [3]): 10% | pH optimum (RCL [3]): ~6.0 pH

Km [2, 8]: > 50000 µM
SMILES: Cc1cn([C@H]2C[C@H](O)[C@@H](COP(=O)(O)O)O2)c(=O)[nH]c1=O [dTMP]

kcat [2, 6]: 0.158 s⁻¹ | Km [2, 8]: 15000 µM
SMILES: O=c1ccn([C@H]2C[C@H](O)[C@@H](COP(=O)(O)O)O2)c(=O)[nH]1 [dUMP]
